# Experimental data from patent US6737383B1, “Herbicidal oxadiazolidines” (priority 1999, dated 2004).
# Assays:
# [1] = tested on: cocklebur; assay: Test B pre/postemergence cocklebur; type: in vivo, Xanthium strumarium
# Procedure, shortened: (§1)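 Response is a visual 0-to-10 score relative to untreated plants, where 0 means no effect and 10 means complete control, taken twelve to sixteen days after application. Treatments went onto soil at planting and onto foliage of 1- to 4-leaf plants, using a surfactant-containing non-phytotoxic solvent.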
# [2] = tested on: giant foxtail; assay: Test B pre/postemergence giant foxtail; type: in vivo, Setaria faberii
# Procedure, shortened: as §1
# [3] = tested on: morningglory; assay: Test B pre/postemergence morningglory; type: in vivo, Ipomoea hederacea
# Procedure, shortened: as §1
# [4] = tested on: bamyardgrass; assay: Test B flood test barnyardgrass; type: in vivo, Echinochloa crus-galli
# Procedure, shortened: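 Read-out is a visual response score from 0 (no effect) to 10 (complete control), assigned by comparison with untreated controls. Treatment was applied at the 2-leaf stage, and plants stayed in the greenhouse for twelve to sixteen days before scoring.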
# [5] = tested on: pitted morningglory; assay: Test D pitted morningglory; type: in vivo, Ipomoea lacunosa; conditions: Preemergence, 0 to 100 scale
# Procedure, shortened: (§2)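 Greenhouse pots, sandy loam, single species per pot. Preemergence tests: soil-surface application ≤1 day after planting. Compound formulated in non-phytotoxic solvent with surfactant. Visual rating 14–21 DAT, scale 0–100.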
# [6] = tested on: sandbur; assay: Test D sandbur; type: in vivo, Cenchrus echinatus; conditions: Preemergence, 0 to 100 scale
# Procedure, shortened: as §2
# [7] = tested on: surinam grass; assay: Test D surinam grass; type: in vivo, Brachiaria decumbens; conditions: Preemergence, 0 to 100 scale
# Procedure, shortened: as §2
# [8] = tested on: winter wheat; assay: Test E winter wheat; type: in vivo, Triticum aestivum; conditions: Postemergence
# Procedure, shortened: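 Compound formulated with surfactant in a non-phytotoxic solvent (postemergence: young 1- to 4-leaf plants); held in greenhouse approx. 21–28 days; visual assessment against untreated plants.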
# [9] = tested on: blackgrass; assay: Test E blackgrass; type: in vivo, Alopecurus myosuroides; conditions: Preemergence
# [10] = tested on: green foxtail; assay: Test E green foxtail; type: in vivo, Setaria viridis; conditions: Preemergence
# [11] = tested on: Italian ryegrass; assay: Test E Italian ryegrass; type: in vivo, Lolium multiflorum; conditions: Preemergence
# [12] = tested on: winter wheat; assay: Test E winter wheat; type: in vivo, Triticum aestivum; conditions: Preemergence
# [13] = tested on: wild oat; assay: Test E wild oat; type: in vivo, Avena fatua; conditions: Preemergence
# [14] = tested on: winter barley; assay: Test E winter barley; type: in vivo, Hordeum vulgare; conditions: Preemergence
# [15] = Postemergence, Rate 125 g/ha, scale of 0 to 10 where 0 is no effect and 10 is complete control
# [16] = Postemergence, Rate 250 g/ha, scale 0 to 10, 0 no effect, 10 complete control
# [17] = Preemergence, Rate 62 g/ha, scale 0 to 10 (0 no effect, 10 complete control)
# [18] = Preemergence, Rate 125 g/ha, scale 0 to 10 (0 no effect, 10 complete control)
# [19] = Preemergence, Rate 250 g/ha, scale of 0 to 10 where 0 is no effect and 10 is complete control
# [20] = Preemergence, Rate 500 g/ha, scale 0 to 10 (0 no effect, 10 complete control)
# [21] = Rate 62 g/ha, Postemergence, scale of 0 to 10 where 0 is no effect and 10 is complete control
# [22] = Rate 500 g/ha, Postemergence, scale 0 to 10, 0 no effect, 10 complete control
# [23] = Rate 500 g/ha, headed Pre-emergence (flood test species), scale 0 to 10 (0 no effect, 10 complete control)
# [24] = Rate 1000 g/ha, Pre-emergence (as headed), scale 0 to 10
# [25] = Rate 2000 g/ha, Pre-emergence (as headed), scale 0 to 10, 0 no effect, 10 complete control
# [26] = Rate 16 g/ha, 0 no injury, 100 complete control
# [27] = Rate 32 g/ha, 0 no injury, 100 complete control
# [28] = Rate 64 g/ha, 0 no injury, 100 complete control
# [29] = Rate 125 g/ha, 0 no injury, 100 complete control
# [30] = Rate 31 g/ha, 0 to 100 scale, 0 no effect, 100 complete control
# [31] = Rate 62 g/ha, 0 to 100 scale, 0 no effect, 100 complete control
# [32] = Rate 125 g/ha, 0 to 100 scale (0 no effect, 100 complete control)
# [33] = Preemergence, Rate 125 g/ha, 0 is no effect, 10 is complete control
# [34] = Preemergence, Rate 250 g/ha, scale 0 to 10, 0 is no effect, 10 is complete control
# [35] = Rate 250 g/ha, Postemergence, scale 0 to 10, 0 is no effect, 10 is complete control
# [36] = Rate 500 g/ha, Postemergence, scale 0 to 10
compound,measurement,setting,value
CCn1c(=O)on(C(=O)N(c2ccc(F)cc2)C(C)C)c1=O [Compound 107],Cocklebur plant response rating,[1]; [15],0
same,Cocklebur plant response rating,[1]; [16],1
same,Cocklebur plant response rating,[1]; [17],0
same,"Plant response rating, Cocklebur",[1]; [18],0
same,"Plant response rating, Cocklebur",[1]; [19],0
same,Cocklebur plant response rating,[1]; [20],0
same,Cocklebur plant response rating,[1]; [21],0
same,Cocklebur plant response rating,[1]; [22],3
same,Giant foxtail plant response rating,[2]; [15],8
same,Giant foxtail plant response rating,[2]; [16],8
same,Giant foxtail plant response rating,[2]; [17],10
same,"Plant response rating, Giant foxtail",[2]; [18],10
same,"Plant response rating, Giant foxtail",[2]; [19],10
same,Giant foxtail plant response rating,[2]; [20],10
same,Giant foxtail plant response rating,[2]; [21],8
same,Giant foxtail plant response rating,[2]; [22],8
same,Morningglory plant response rating,[3]; [15],3
same,Morningglory plant response rating,[3]; [16],3
same,Morningglory plant response rating,[3]; [17],0
same,"Plant response rating, Morningglory",[3]; [18],0
same,"Plant response rating, Morningglory",[3]; [19],2
same,Morningglory plant response rating,[3]; [20],7
same,Morningglory plant response rating,[3]; [21],3
same,Morningglory plant response rating,[3]; [22],3
same,Barnyardgrass plant response rating,"[4]; Rate 250 g/ha, headed Pre-emergence (flood test species), scale 0 to 10 (0 no effect, 10 complete control)",0
same,"Plant response rating, Barnyardgrass",[4]; [23],0
same,Barnyardgrass plant response rating,[4]; [24],0
same,Barnyardgrass plant response rating,[4]; [25],0
same,"Plant response rating, P. morninglory",[5]; [26],0
same,"Plant response rating, P. morninglory",[5]; [27],0
same,"Plant response rating, P. morninglory",[5]; [28],30
same,"Plant response rating, P. morninglory",[5]; [29],30
same,"Plant response rating, P. morninglory",[5]; Rate 250 g/ha,75
same,"Plant response rating, P. morninglory",[5]; Rate 500 g/ha,100
same,"Plant response rating, Sandbur",[6]; [26],30
same,"Plant response rating, Sandbur",[6]; [27],30
same,Sandbur plant response rating,[6]; [28],65
same,Sandbur plant response rating,[6]; [29],98
same,"Plant response rating, Sandbur",[6]; Rate 250 g/ha,100
same,"Plant response rating, Sandbur",[6]; Rate 500 g/ha,100
same,"Plant response rating, Surinam grass",[7]; [26],30
same,"Plant response rating, Surinam grass",[7]; [27],75
same,Surinam grass plant response rating,[7]; [28],100
same,Surinam grass plant response rating,[7]; [29],100
same,"Plant response rating, Surinam grass",[7]; Rate 250 g/ha,100
same,"Plant response rating, Surinam grass",[7]; Rate 500 g/ha,100
same,"Plant response rating, Wheat (winter)",[8]; [30],50
same,"Plant response rating, Wheat (winter)","[8]; Rate 62 g/ha, 0 to 100 scale",40
same,"Plant response rating, Wheat (winter)","[8]; Rate 125 g/ha, 0 to 100 scale",30
same,"Plant response rating, Wheat (winter)","[8]; Rate 250 g/ha, 0 to 100 scale (0 no effect, 100 complete control)",0
same,"Plant response rating, Blackgrass",[9]; [30],30
same,"Plant response rating, Blackgrass",[9]; [31],60
same,"Plant response rating, Blackgrass",[9]; [32],85
same,"Plant response rating, Blackgrass","[9]; Rate 250 g/ha, 0 to 100 scale",80
same,"Plant response rating, Green foxtail",[10]; [30],55
same,"Plant response rating, Green foxtail",[10]; [31],80
same,"Plant response rating, Green foxtail",[10]; [32],100
same,"Plant response rating, Green foxtail","[10]; Rate 250 g/ha, 0 to 100 scale",95
same,"Plant response rating, I. Ryegrass",[11]; [30],40
same,"Plant response rating, I. Ryegrass",[11]; [31],55
same,"Plant response rating, I. Ryegrass",[11]; [32],98
same,"Plant response rating, I. Ryegrass","[11]; Rate 250 g/ha, 0 to 100 scale",95
same,"Plant response rating, Wheat (winter)",[12]; [30],0
same,"Plant response rating, Wheat (winter)",[12]; [31],50
same,"Plant response rating, Wheat (winter)",[12]; [32],30
same,"Plant response rating, Wheat (winter)","[12]; Rate 250 g/ha, 0 to 100 scale",40
same,"Plant response rating, Wild oat",[13]; [30],20
same,"Plant response rating, Wild oat",[13]; [31],50
same,"Plant response rating, Wild oat",[13]; [32],60
same,"Plant response rating, Barley (winter)",[14]; [30],10
same,"Plant response rating, Barley (winter)",[14]; [31],20
same,"Plant response rating, Barley (winter)",[14]; [32],20
same,"Plant response rating, Barley (winter)","[14]; Rate 250 g/ha, 0 to 100 scale",15
C=C(C)Cn1c(=O)on(C(=O)N(c2ccc(F)cc2)C(C)C)c1=O [Compound 139],Cocklebur plant response rating,[1]; [15],0
same,Cocklebur plant response rating,[1]; [17],0
same,Cocklebur plant response rating (0 to 10 scale),[1]; [33],0
same,Cocklebur plant response rating,[1]; [34],0
same,Cocklebur plant response rating,[1]; [20],0
same,Cocklebur plant response rating,[1]; [21],0
same,"Plant response rating, Cocklebur",[1]; [35],2
same,Cocklebur plant response rating,[1]; [36],2
same,Giant foxtail plant response rating,[2]; [15],8
same,Giant foxtail plant response rating,[2]; [17],10
same,Giant foxtail plant response rating (0 to 10 scale),[2]; [33],10
same,Giant foxtail plant response rating,[2]; [34],10
same,Giant foxtail plant response rating,[2]; [20],10
same,Giant foxtail plant response rating,[2]; [21],6
same,"Plant response rating, Giant foxtail",[2]; [35],9
same,Giant foxtail plant response rating,[2]; [36],9
same,Morningglory plant response rating,[3]; [15],5
same,Morningglory plant response rating,[3]; [17],0
same,Morningglory plant response rating (0 to 10 scale),[3]; [33],0
same,Morningglory plant response rating,[3]; [34],0
same,Morningglory plant response rating,[3]; [20],0
same,Morningglory plant response rating,[3]; [21],3
same,"Plant response rating, Morningglory",[3]; [35],6
same,Morningglory plant response rating,[3]; [36],9
same,Barnyardgrass plant response rating,"[4]; Postemergence (flood test species), Rate 125 g/ha, scale of 0 to 10 where 0 is no effect and 10 is complete control",0
same,Barnyardgrass plant response rating,"[4]; Rate 31 g/ha, Postemergence section (flood test species), scale 0 to 10",0
same,Barnyardgrass plant response rating,"[4]; Rate 62 g/ha, Postemergence section, flood test species, scale of 0 to 10 where 0 is no effect and 10 is complete control",0
same,"Plant response rating, Barnyardgrass","[4]; Rate 250 g/ha, Postemergence (flood test), scale 0 to 10, 0 is no effect, 10 is complete control",0
same,Barnyardgrass plant response rating,"[4]; Rate 250 g/ha, Pre-emergence, flood-test species, scale 0 to 10, 0 is no effect, 10 is complete control",0
same,"Plant response rating, Barnyardgrass",[4]; [23],0
same,Barnyardgrass plant response rating,[4]; [24],0
same,Barnyardgrass plant response rating,[4]; [25],6
same,"Plant response rating, P. morninglory",[5]; [28],30
same,Sandbur plant response rating,[6]; [28],40
same,Surinam grass plant response rating,[7]; [28],20
